Experimental findings from patent US20250019374A1, “PROTEIN TYROSINE PHOSPHATASE INHIBITORS AND METHODS OF USE THEREOF” (Calico Life Sciences LLC, priority 2021, published 2025) are described below.

Assay [1] has as its target His tagged PTPN2 (TC45) protein (Homo sapiens (Human), UniProt P17706). The assay is described as follows: PTPN2 Mobility Shift Assay (MSA). The note with it: enzyme 0.5 nM, substrate 2 μM. The assay is classed as biochemical. Summed up: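 His-tagged human PTPN2 (TC45), 0.5 nM, preincubated with compound (12-point, 1:3) 10 min at room temperature in HEPES pH 7.5 buffer with EDTA, EGTA, DTT. Dephosphorylation of 2 μM fluorescent phospho-insulin-receptor peptide over 10 min read by mobility shift; IC50 from % inhibition.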

The subject of assay [2] is IFNγ-induced STAT1 phosphorylation (pSTAT1) in B16F10 cells. Briefly: B16F10 Phospho-STAT1 HTRF proximal pharmacodynamic (PD) assay. The assay is classed as cell-based, murine. To be noted: B16-F10; B16F10 cells, 3 hours compound, 100 nM mouse IFNγ 10 minutes; read-out: B16F10 IFNγ Induced pSTAT1 EC50. In short, it runs like this:
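B16F10 cells in phenol red-free DMEM/10% FBS were dosed for 3 h at 37 °C in a 10-point, 3-fold series from 50 μM, then stimulated with 100 nM mouse IFNγ for 10 min and stopped with 3.3 μM staurosporine. pSTAT1 in lysates was measured by HTRF (665 nm emission), and EC50s were fitted from dose-response curves.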
For orientation: In TR-FRET formats the signal depends on donor and acceptor labels being close together.

Assay [3] has as its target His tagged full-length PTPN1 protein (Homo sapiens (Human), UniProt P18031). Briefly: PTPN1 Mobility Shift Assay (MSA). The assay is classed as biochemical. The note with it: enzyme 0.5 nM, substrate 2 μM. In short, it runs like this: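 Enzyme at 0.5 nM was preincubated with compound (12-point, 1:3 dilution) for 10 min at room temperature in pH 7.5 HEPES buffer with EDTA, EGTA and DTT. OG488-labelled phosphorylated insulin-receptor peptide at 2 µM was then added for 10 min. After quench, % substrate dephosphorylation was read by mobility shift, and IC50 came from % inhibition.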

A word on the IC50: it is the concentration that gives 50% inhibition. A word on the EC50: it is the concentration needed to bring the measured effect to its halfway point.

Chain of His tagged full-length PTPN1 protein (P18031 whole entry): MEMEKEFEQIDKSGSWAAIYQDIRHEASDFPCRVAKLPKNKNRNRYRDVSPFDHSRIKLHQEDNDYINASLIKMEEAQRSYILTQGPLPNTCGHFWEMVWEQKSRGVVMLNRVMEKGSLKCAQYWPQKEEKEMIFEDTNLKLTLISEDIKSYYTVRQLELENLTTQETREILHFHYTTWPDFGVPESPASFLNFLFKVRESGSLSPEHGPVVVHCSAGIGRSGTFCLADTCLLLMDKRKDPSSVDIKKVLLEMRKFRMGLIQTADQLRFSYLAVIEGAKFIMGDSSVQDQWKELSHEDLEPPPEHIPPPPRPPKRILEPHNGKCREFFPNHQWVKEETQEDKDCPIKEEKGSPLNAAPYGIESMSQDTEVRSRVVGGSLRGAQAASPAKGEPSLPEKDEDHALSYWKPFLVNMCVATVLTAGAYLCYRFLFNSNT
Chain of His tagged PTPN2 (TC45) protein (P17706 other isoform, or with tags, fused parts or gaps): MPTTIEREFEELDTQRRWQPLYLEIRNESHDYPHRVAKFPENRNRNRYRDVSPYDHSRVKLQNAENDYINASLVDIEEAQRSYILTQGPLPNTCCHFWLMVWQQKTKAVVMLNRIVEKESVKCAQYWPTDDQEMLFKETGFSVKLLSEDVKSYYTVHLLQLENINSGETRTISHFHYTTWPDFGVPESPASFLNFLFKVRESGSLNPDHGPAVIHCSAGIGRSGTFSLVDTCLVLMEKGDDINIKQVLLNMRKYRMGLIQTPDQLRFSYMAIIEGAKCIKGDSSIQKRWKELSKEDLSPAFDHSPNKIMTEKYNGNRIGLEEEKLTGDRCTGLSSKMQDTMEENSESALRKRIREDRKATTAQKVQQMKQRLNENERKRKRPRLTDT

Take `O=C1CN(c2c(O)cc3c(c2F)C[C@H](CNCCC2CC2)N3)S(=O)(=O)N1` [Compound 152, 5-[(2R)-2-{[(2-cyclopropylethyl)amino]methyl}-4-fluoro-6-hydroxy-2,3-dihydro-1H-indol-5-yl]-1λ^6,2,5-thiadiazolidine-1,1,3-trione]: the IC50 in assay [1] and in assay [3] was 10 to 100 nM each time. The EC50 in assay [2] was 1170 nM.
Turning to `CC(C)CNC[C@@H]1Cc2c(cc(O)c(N3CC(=O)NS3(=O)=O)c2F)N1` [Compound 132, 5-[(2S)-4-fluoro-6-hydroxy-2-{[(2-methylpropyl)amino]methyl}-2,3-dihydro-1H-indol-5-yl]-1λ^6,2,5-thiadiazolidine-1,1,3-trione], the IC50 is 10 to 100 nM in assay [1] and > 100 nM in assay [3]. Also, the EC50 in assay [2] was found to be 4690 nM.
